pIC50: −log10 of the molar value. Where two headings read alike, the source gives them in different places.
How the values were obtained:
Assay type in all cases: cell-based
NCI-H358 cells = experiment: NCI-H358 CTG proliferation assay (120 h) (NSCLC, G12C); conditions: Homo sapiens
Experimental: NCI-H358 CTG Proliferation Assay (120 h) (NSCLC, G12C)
NCI-H358 cells (ATCC No. CRL-5807) are dispensed into white bottom opaque 96 well plates (Perkin Elmer cat no. 5680) at a density of 2000 cells per well in 100 μL RPMI-1640 ATCC-Formulation (Gibco #A10491)+10% FCS (fetal calf serum) (assay 1) or into black 384-well plates, flat and clear bottom (Greiner, PNr. 781091) at a density of 200 cells per well in 60 μl RPMI-1640 ATCC-Formulation (Gibco #A10491)+10% FCS (fetal calf serum) (assay 2). […] Compounds (10 mM stock in DMSO) are added at logarithmic dose series using the HP Digital Dispenser D300 (Tecan) (assay 1) or the ECHO acoustic liquid handler system (Beckman Coulter) (assay 2), normalizing for added DMSO and including DMSO controls. For the TO time point measurement, untreated cells are analyzed at the time of compound addition. Plates are incubated for 120 h, and cell viability is measured using CellTiter-Glo luminescent cell viability reagent (Promega product code G7570). Viability (stated as percent of control) is defined as relative luminescence units RLU of each well divided by the RLU of cells in DMSO controls. IC50 values are determined from viability measurements by non-linear regression using a four parameter model.

GP5d cells = experiment: GP5d cell proliferation assay (colorectal cancer, G12D), 5 days; conditions: Homo sapiens, 120 h
Experimental: GP5d Cell Proliferation Assay (Colorectal Cancer, G12D)
(§1) GP5d cells (ECACC 95090715) are dispensed into white bottom opaque 96 well plates at a density of 5000 cells per well in 100 μL DMEM (BioWhittaker, Cat #BE12-605F) supplemented with 10% FCS. […] Compounds (10 mM stock in DMSO) are added at logarithmic dose series using the HP Digital Dispenser D300 (Tecan), normalizing for added DMSO. For the TO time point measurement, untreated cells are analysed at the time of compound addition. Plates are incubated for 5 days, and cell viability is measured using CellTiter-Glo luminescent cell viability reagent (Promega, Cat. No G7570). Viability (stated as percent of control) is defined as relative luminescence units RLU of each well divided by the RLU of cells in DMSO controls. IC50 values were computed from relative viability values using a four parametric logistic model.

SW620 cells = experiment: SW620 cell proliferation assay (colorectal cancer, G12V), 5 days; conditions: Homo sapiens, SW-620, 120 h
Experimental: SW620 Cell Proliferation Assay (Colorectal Cancer, G12V)
as §1, with “SW620” for “GP5d”, “(ATCC CCL-227)” for “(ECACC 95090715)”, “plates (Perkin Elmer cat no. 5680)” for “plates”, “2000” for “5000”

KRAS(G12D) = biological target: T1, KRAS(G12D) (Homo sapiens, UniProt P01116, G12D); experiment: HiBit degradation assay in GP5d-HiBit-KRAS(G12D) cells (18 h; DC50, Dmax)
T1 construct: introduced immediately downstream of the initiating Methionine codon of the endogenous KRAS locus; host or cells: GP5d-HiBit-KRAS(G12D), a CRISPR knock-in at the endogenous locus
Experimental: A HiBit protein detection tag (amino acid sequence […], Seq ID No 1) was introduced immediately downstream of the initiating Methionine codon of the endogenous KRAS locus (Ensembl gene ID ENSG00000133703.7) of GP5d cells (ECACC Cat. No. 95090715) by CRISPR-based genome engineering using a KRAS(G12D) mutant donor construct encoding the HiBit tag. […] Correct modification of the KRAS locus was assessed by PCR-based genotyping and Sanger sequencing of the isolated PCR products. The resulting cell line is referred to as GP5d-HiBit-KRAS(G12D).
To assess PROTAC-mediated degradation of KRAS(G12D), GP5d-HiBit-KRAS(G12D) cells were seeded at 25000 cells per well in 100 μL Dulbecco's Modified Eagle medium (Sigma cat. no. D6429) supplemented with 10% fetal calf serum into white bottom opaque 96 well plates (Perkin Elmer cat no. 5680). Plates were incubated at 37° C., 5% CO2 in a humidified incubator over night to allow the cells to adhere. […] Plates were further incubated at 37° C. for 18 hours. Following incubation, 100 μL per well Promega Nano-Glo HiBit lytic detection reagent mix (Promega Nano-Glo HiBit Lytic Detection System #N3050), prepared according to the manufacturer's instructions in the kit, were added. To allow for adequate cell lysis, plates were incubated on an orbital shaker for 15 min and further incubated 30 min at room temperature. Upon completion of cell lysis, luminescence was measured using an Envision plate reader using the Ultrasensitive Luminescence Protocol for 96 well plates. Luminescence levels were normalized by the values obtained with DMSO-treated samples and plotted as percent of DMSO control. DC50 values were computed using a four parametric logistic model. Dmax values represent the maximal extent of degradation observed and is stated as percent of control (% Ctrl.) treatments. DC50 and Dmax are reported in Table 64 for representative compounds of the invention.

SK—CO-1 cells = experiment: SK-CO-1 CTG proliferation assay (120 h) (CRC, G12V); conditions: Homo sapiens, SK-CO-1 proliferation
Experimental: SK—CO-1 CTG Proliferation Assay (120 h) (CRC, G12V)
(§2) SK—CO-1 cells (ATCC HTB-39) are dispensed into 384-well plates, flat and clear bottom (Greiner, PNr. 781091) at a density of 500 cells per well in 60 μL EMEM (Sigma M5650)+10% Fetal Calf Serum (HyClone, PNr.: SH30084.03) and incubated at 37° C. in a CO2 incubator overnight. The next day, compounds (10 mM stock in DMSO) are added with the ECHO acoustic liquid handler system (Beckman Coulter), including DMSO controls. Plates are incubated for 120 h, and cell viability is measured using CellTiter-Glo luminescent cell viability reagent (Promega product code G7570). Viability (stated as percent of control) is defined as relative luminescence units RLU of each well divided by the RLU of cells in DMSO controls. IC50 values are determined from viability measurements by non-linear regression using a four-parameter model.

AsPC-1 cells = experiment: AsPC-1 CTG proliferation assay (120 h) (pancreatic cancer, G12D); conditions: Homo sapiens, ASPC1, AsPC-1 proliferation
Experimental: AsPC-1 CTG Proliferation Assay (120 h) (Pancreatic Cancer, G12D)
The CTG assay is designed to measure quantitatively the proliferation of AsPC-1 cells (ATCC […]), using the CellTiter Glow Assay Kit (Promega G7571). Cells are grown in RPMI medium (ATCC) supplemented with Fetal Calf Serum (Life Technologies, Gibco BRL, Cat. No. 10270-106). On “day 0” 2000 AsPC-1 cells are seeded in 60 μL RPMI ATCC+10% FCS+ Penstrep in a 384-well plate, flat and clear bottom (Greiner, PNr. 781091). Cells are then incubated in the plates at 37° C. in a CO2 incubator overnight. On day 1, compounds (10 mM stock in DMSO) are added with the ECHO acoustic liquid handler system (Beckman Coulter), including DMSO controls. Plates are incubated for 120 h, and cell viability is measured using CellTiter-Glo luminescent cell viability reagent (Promega product code G7570). Viability (stated as percent of control) is defined as relative luminescence units RLU of each well divided by the RLU of cells in DMSO controls. IC50 values are determined from viability measurements by non-linear regression using a four-parameter model.

SAS cells = experiment: SAS CTG proliferation assay (120 h) (HNSCC, wt amplified)
Experimental: SAS CTG Proliferation Assay (120 h) (HNSCC, Wt Amplified)
as §2, with “SAS” for “SK—CO-1”, “(JCRB0260)” for “(ATCC HTB-39)”, “300” for “500”, “DMEM:F12 (Gibco 31330-038)+10%” for “EMEM (Sigma M5650)+10%”

[1] = assay 1, read-out: H358 (assay 1) IC50
[2] = assay 2, read-out: H358 (assay 2) IC50

T1 sequence (P01116 1-188 isoform P01116-2 G12D): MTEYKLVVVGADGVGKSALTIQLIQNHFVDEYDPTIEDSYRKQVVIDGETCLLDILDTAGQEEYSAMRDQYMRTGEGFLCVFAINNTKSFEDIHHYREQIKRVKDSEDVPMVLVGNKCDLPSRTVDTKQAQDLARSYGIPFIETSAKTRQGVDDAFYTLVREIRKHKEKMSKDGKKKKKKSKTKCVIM

| SMILES | pIC50 (NCI-H358 cells; [1]) | pIC50 (GP5d cells) | pIC50 (SW620 cells) | DC50 (KRAS(G12D)) [nM] | Dmax 18 h (KRAS(G12D)) [% Ctrl] | pIC50 (NCI-H358 cells; [2]) | pIC50 (SK—CO-1 cells) | pIC50 (AsPC-1 cells) | pIC50 (SAS cells) |
| --- | --- | --- | --- | --- | --- | --- | --- | --- | --- |
| Cc1ncsc1-c1ccc(CNC(=O)[C@@H]2C[C@@H](O)CN2C(=O)C(c2cc(OCCN3CCCN(c4nccc(-c5noc([C@@]6(C)CCCc7sc(N)c(C#N)c76)n5)n4)[C@@H](C)C3)no2)C(C)C)cc1 (stereo partly shown) [I-2] | 5.53 | ≤ 5.05 | 6.22 | 263 | 84 |  |  |  |  |
| CC(C)C(C(=O)N1C[C@H](O)C[C@H]1C(=O)NCc1ccc(Cl)cc1)c1cc(OCCCCN2CCCN(c3nccc(-c4noc([C@@]5(C)CCCc6sc(N)c(C#N)c65)n4)n3)[C@@H](C)C2)no1 (stereo partly shown) [I-20] | 6.36 | 7.03 | 7.08 | 8.6 | 89 | 6.42 |  |  |  |
| CC(C)C(C(=O)N1C[C@H](O)C[C@H]1C(=O)NCc1ccc(-n2ccnc2)cc1)c1cc(OCCCCN2CCCN(c3nccc(-c4noc([C@@]5(C)CCCc6sc(N)c(C#N)c65)n4)n3)[C@@H](C)C2)no1 (stereo partly shown) [I-19] | 6.46 | 7.63 | 7.54 | 6.7 | 93 |  |  |  |  |
| CC(C)c1ccc(CNC(=O)[C@@H]2C[C@@H](O)CN2C(=O)C(c2cc(OCCCCN3CCCN(c4nccc(-c5noc([C@@]6(C)CCCc7sc(N)c(C#N)c76)n5)n4)[C@@H](C)C3)no2)C(C)C)cc1 (stereo partly shown) [I-23] | 5.94 | 6.07 | 6.57 | 76.7 | 82 | 6.28 |  |  |  |
| Cc1ncsc1-c1ccc(CNC(=O)[C@@H]2C[C@@H](O)CN2C(=O)C(c2cc(OCCCN3CCCN(c4nccc(-c5noc([C@@]6(C)CCCc7sc(N)c(C#N)c76)n5)n4)[C@@H](C)C3)no2)C(C)C)cc1 (stereo partly shown) [I-1] | 6.82 | 7.65 | 7.56 | 6.4 | 94 | 7.02 |  |  |  |
| Cc1ncsc1-c1ccc(CNC(=O)[C@@H]2C[C@@H](O)CN2C(=O)[C@H](c2cc(OCCCCN3CCCN(c4nccc(-c5noc([C@@]6(C)CCCc7sc(N)c(C#N)c76)n5)n4)[C@@H](C)C3)no2)C(C)C)cc1 (single isomer, unassigned) [I-26] | 6.31 | 6.88 | 6.58 | 101 | 77 | 6.36 |  |  |  |
| Cc1ncsc1-c1ccc(CNC(=O)[C@@H]2C[C@@H](O)CN2C(=O)C(c2cc(OCCCCN3CCCN(c4nccc(-c5cc([C@@]6(C)CCCc7sc(N)c(C#N)c76)no5)n4)[C@@H](C)C3)no2)C(C)C)cc1 (stereo partly shown) [I-6] |  |  |  | 8.9 | 92 | 6.60 | 5.92 | 6.19 | 4.77 |
| Cc1ncsc1-c1ccc(CNC(=O)[C@@H]2C[C@@H](O)CN2C(=O)C(c2cc(OCCCCN3CCCN(c4nccc(-c5noc([C@@]6(C)CCCc7sc(N)c(C#N)c76)n5)n4)[C@@H](C)C3)no2)C(C)C)cc1 (stereo partly shown) [I-3] | 7.18 | 8.21 | 7.88 | 2.7 | 91 | 7.22 |  |  |  |

Source: patent US20250145608A1, “KRAS DEGRADING COMPOUNDS COMPRISING ANNULATED 2-AMINO-3-CYANO THIOPHENES” (Boehringer Ingelheim Int'l GmbH Corp., priority 2021, published 2025)
